PubChem BioAssay (NCI)
Where “and” joins values, the source holds several entries; their conditions need not be identical. Equal values may be shown once.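 Grown in 96-well plates, cells were treated for 48 hours with each compound at five concentrations. Insufficient inhibition: endpoint recorded as highest concentration tested. Here, GI50 denotes the concentration required for 50% inhibition of growth. TGI: concentration producing complete growth inhibition.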

What was measured:
Assay in all cases: inhibition of tumour cell growth, NCI panel, 48 h
A498 renal = system: A498 renal
KM12 colon = system: KM12 colon
LOX IMVI melanoma = system: LOX IMVI melanoma
MALME-3M melanoma = system: MALME-3M melanoma
MOLT-4 leukemia = system: MOLT-4 leukemia
NCI-H23 lung = system: NCI-H23 lung
PC-3 prostate = system: PC-3 prostate
RPMI-8226 leukemia = system: RPMI-8226 leukemia
SN12C renal = system: SN12C renal
SNB-19 CNS = system: SNB-19 CNS

Cc1cc(I)cc(CN(C)CCCN2CCN(C)CC2)c1O
GI50 (A498 renal): 23.6 µM | TGI (A498 renal): 54.2 µM | GI50 (KM12 colon): 35.6 µM | TGI (KM12 colon): > 100 µM | GI50 (LOX IMVI melanoma): 17.2 µM | TGI (LOX IMVI melanoma): 36.1 µM | GI50 (MALME-3M melanoma): 19.9 µM | TGI (MALME-3M melanoma): 36.2 µM | GI50 (MOLT-4 leukemia): 21.7 µM | TGI (MOLT-4 leukemia): > 63.8 µM | GI50 (NCI-H23 lung): 82.4 µM | TGI (NCI-H23 lung): > 100 µM | GI50 (PC-3 prostate): 52.2 µM | TGI (PC-3 prostate): > 100 µM | GI50 (RPMI-8226 leukemia): 16.1 µM | TGI (RPMI-8226 leukemia): 45.2 µM | GI50 (SN12C renal): > 94.8 µM | TGI (SN12C renal): > 100 µM | GI50 (SNB-19 CNS): > 100 µM | TGI (SNB-19 CNS): > 100 µM

CC#Cc1nc(Nc2cc(C)[nH]n2)c2ccccc2n1
GI50 (A498 renal): 3.93 µM and 1.08 µM | TGI (A498 renal): 2.75 µM | GI50 (KM12 colon): 4.38 µM and 2.4 µM | TGI (KM12 colon): 12.4 µM | GI50 (LOX IMVI melanoma): 2.07 µM | TGI (LOX IMVI melanoma): 4.4 µM | GI50 (MALME-3M melanoma): 7.24 µM | TGI (MALME-3M melanoma): 25.2 µM | GI50 (MOLT-4 leukemia): 5.33 µM | TGI (MOLT-4 leukemia): > 100 µM | GI50 (NCI-H23 lung): 5.27 µM | TGI (NCI-H23 lung): 41.6 µM | GI50 (PC-3 prostate): 5.22 µM | TGI (PC-3 prostate): 21.6 µM | GI50 (RPMI-8226 leukemia): 6.95 µM and 3.32 µM | TGI (RPMI-8226 leukemia): 22.2 µM | GI50 (SN12C renal): 3.08 µM | TGI (SN12C renal): 10.4 µM | GI50 (SNB-19 CNS): 19.8 µM | TGI (SNB-19 CNS): 50.7 µM

O=C(CCc1ccc(O)cc1)N/N=C/c1cc(Br)ccc1O
GI50 (A498 renal): 9.81 µM | TGI (A498 renal): 49.6 µM | GI50 (KM12 colon): 3.36 µM | TGI (KM12 colon): 31.5 µM | GI50 (LOX IMVI melanoma): 2.07 µM | TGI (LOX IMVI melanoma): 16.8 µM | GI50 (MALME-3M melanoma): 4.01 µM | TGI (MALME-3M melanoma): 28.3 µM | GI50 (MOLT-4 leukemia): 2.41 µM | TGI (MOLT-4 leukemia): 11.2 µM | GI50 (NCI-H23 lung): 7.42 µM | TGI (NCI-H23 lung): > 100 µM | GI50 (PC-3 prostate): 4.14 µM | TGI (PC-3 prostate): > 100 µM | GI50 (RPMI-8226 leukemia): 3.57 µM | TGI (RPMI-8226 leukemia): 33.3 µM | GI50 (SN12C renal): 4.76 µM | TGI (SN12C renal): 73.6 µM | GI50 (SNB-19 CNS): 6.51 µM | TGI (SNB-19 CNS): > 100 µM

COc1ccc(Cn2cc3c(c2-c2cc(OC)c(OC)c(OC)c2)CCc2cnoc2-3)cc1
GI50 (A498 renal): 0.162 µM | TGI (A498 renal): 0.726 µM | GI50 (KM12 colon): 0.281 µM | TGI (KM12 colon): > 24.1 µM | GI50 (LOX IMVI melanoma): 0.813 µM | TGI (LOX IMVI melanoma): > 100 µM | GI50 (MALME-3M melanoma): 0.239 µM | TGI (MALME-3M melanoma): > 100 µM | GI50 (MOLT-4 leukemia): 0.468 µM | TGI (MOLT-4 leukemia): > 100 µM | GI50 (NCI-H23 lung): 0.388 µM | TGI (NCI-H23 lung): > 100 µM | GI50 (PC-3 prostate): 0.473 µM | TGI (PC-3 prostate): > 100 µM | GI50 (RPMI-8226 leukemia): 0.356 µM | GI50 (SN12C renal): 0.715 µM | TGI (SN12C renal): > 100 µM | GI50 (SNB-19 CNS): 0.502 µM | TGI (SNB-19 CNS): > 100 µM

O=C1C(Cl)=C(Nc2cccc(O)c2)C(=O)N1Cc1ccc(Cl)cc1Cl
GI50 (A498 renal): 1.57 µM | TGI (A498 renal): 10.2 µM | GI50 (KM12 colon): 10.1 µM | TGI (KM12 colon): 25.2 µM | GI50 (LOX IMVI melanoma): 4.06 µM | TGI (LOX IMVI melanoma): 15.5 µM | GI50 (MALME-3M melanoma): 1.18 µM | TGI (MALME-3M melanoma): 14.9 µM | GI50 (MOLT-4 leukemia): 3.22 µM | TGI (MOLT-4 leukemia): 19.2 µM | GI50 (NCI-H23 lung): 3.78 µM | TGI (NCI-H23 lung): 17.8 µM | GI50 (PC-3 prostate): 4.88 µM | TGI (PC-3 prostate): 19.6 µM | GI50 (RPMI-8226 leukemia): 1.08 µM | TGI (RPMI-8226 leukemia): 14 µM | GI50 (SN12C renal): 2.67 µM | TGI (SN12C renal): 15.1 µM | GI50 (SNB-19 CNS): 3.39 µM | TGI (SNB-19 CNS): 33.8 µM

Cn1cc(C2=C(N3CCOCC3)C(=O)NC2=O)c2ccccc21
GI50 (A498 renal): > 25 µM | TGI (A498 renal): > 25 µM | GI50 (KM12 colon): > 25 µM | TGI (KM12 colon): > 25 µM | GI50 (LOX IMVI melanoma): > 25 µM | TGI (LOX IMVI melanoma): > 25 µM | GI50 (MALME-3M melanoma): > 25 µM | TGI (MALME-3M melanoma): > 25 µM | GI50 (MOLT-4 leukemia): > 25 µM | TGI (MOLT-4 leukemia): > 25 µM | GI50 (NCI-H23 lung): > 25 µM | TGI (NCI-H23 lung): > 25 µM | GI50 (PC-3 prostate): > 25 µM | TGI (PC-3 prostate): > 25 µM | GI50 (RPMI-8226 leukemia): > 25 µM | TGI (RPMI-8226 leukemia): > 25 µM | GI50 (SN12C renal): > 25 µM | TGI (SN12C renal): > 25 µM | GI50 (SNB-19 CNS): > 25 µM | TGI (SNB-19 CNS): > 25 µM

CCCCCCCCCCCCCCCC1=NC(C)(C)CN1C(C)C
GI50 (A498 renal): 2.41 µM | TGI (A498 renal): 6.24 µM | GI50 (KM12 colon): 1.33 µM | TGI (KM12 colon): 2.6 µM | GI50 (LOX IMVI melanoma): 1.45 µM | TGI (LOX IMVI melanoma): 2.8 µM | GI50 (MALME-3M melanoma): 1.64 µM | TGI (MALME-3M melanoma): 3.35 µM | GI50 (MOLT-4 leukemia): 1.16 µM | TGI (MOLT-4 leukemia): 2.73 µM | GI50 (NCI-H23 lung): 1.49 µM | TGI (NCI-H23 lung): 2.81 µM | GI50 (PC-3 prostate): 1.37 µM | TGI (PC-3 prostate): 3.68 µM | GI50 (RPMI-8226 leukemia): 1.04 µM | TGI (RPMI-8226 leukemia): 2.82 µM | GI50 (SN12C renal): 1.38 µM | TGI (SN12C renal): 2.89 µM | GI50 (SNB-19 CNS): 2.04 µM | TGI (SNB-19 CNS): 5.02 µM

CCN(CC)C(=S)[S][Bi]([S]C(=S)N(CC)CC)[S]C(=S)N(CC)CC
GI50 (A498 renal): 1.24 µM | TGI (A498 renal): 2.49 µM | GI50 (KM12 colon): 1.61 µM | TGI (KM12 colon): 3.1 µM | GI50 (LOX IMVI melanoma): 0.261 µM | TGI (LOX IMVI melanoma): 0.745 µM | GI50 (MALME-3M melanoma): 0.168 µM | TGI (MALME-3M melanoma): 0.317 µM | GI50 (MOLT-4 leukemia): 0.0945 µM | TGI (MOLT-4 leukemia): 2.28 µM | GI50 (NCI-H23 lung): 0.211 µM | TGI (NCI-H23 lung): 0.582 µM | GI50 (PC-3 prostate): 0.263 µM | TGI (PC-3 prostate): 1.04 µM | GI50 (RPMI-8226 leukemia): 0.23 µM | TGI (RPMI-8226 leukemia): 2.15 µM | GI50 (SN12C renal): 0.264 µM | TGI (SN12C renal): 0.696 µM | GI50 (SNB-19 CNS): 1.71 µM | TGI (SNB-19 CNS): 3.08 µM

Cc1cccc(Cc2cnc(NC(=O)CCc3ccc(C)o3)s2)c1
GI50 (A498 renal): 0.343 µM | TGI (A498 renal): 10.5 µM | GI50 (KM12 colon): 0.16 µM | TGI (KM12 colon): > 100 µM | GI50 (LOX IMVI melanoma): 0.518 µM | TGI (LOX IMVI melanoma): > 100 µM | TGI (MALME-3M melanoma): > 100 µM | GI50 (MOLT-4 leukemia): 0.371 µM | TGI (MOLT-4 leukemia): > 100 µM | GI50 (NCI-H23 lung): 0.593 µM | TGI (NCI-H23 lung): > 100 µM | GI50 (PC-3 prostate): 0.336 µM | TGI (PC-3 prostate): > 100 µM | GI50 (RPMI-8226 leukemia): 0.318 µM | TGI (RPMI-8226 leukemia): > 100 µM | GI50 (SN12C renal): 0.525 µM | TGI (SN12C renal): > 100 µM | GI50 (SNB-19 CNS): 0.37 µM | TGI (SNB-19 CNS): > 100 µM
